The test addresses T1, PPARγ (peroxisome proliferator-activated receptor gamma) (Homo sapiens, UniProt P37231).
T1 construct: gene PPARG; full-length human PPARγ
T1 sequence (P37231 1-505): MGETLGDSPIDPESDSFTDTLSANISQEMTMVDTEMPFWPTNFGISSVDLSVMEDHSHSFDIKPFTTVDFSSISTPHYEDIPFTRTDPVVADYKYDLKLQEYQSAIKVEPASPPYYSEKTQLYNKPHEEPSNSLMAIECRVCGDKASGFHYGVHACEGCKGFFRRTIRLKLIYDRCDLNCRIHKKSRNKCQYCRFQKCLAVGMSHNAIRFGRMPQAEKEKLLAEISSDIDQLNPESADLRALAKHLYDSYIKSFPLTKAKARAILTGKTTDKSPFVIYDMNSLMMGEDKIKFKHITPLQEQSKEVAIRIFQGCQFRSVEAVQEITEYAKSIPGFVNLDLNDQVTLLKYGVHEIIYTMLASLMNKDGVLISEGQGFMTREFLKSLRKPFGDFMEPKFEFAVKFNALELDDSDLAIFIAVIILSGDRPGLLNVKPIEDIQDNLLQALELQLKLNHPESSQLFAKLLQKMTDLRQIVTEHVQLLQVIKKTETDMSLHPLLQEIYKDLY
Nature of the test: luciferase reporter gene transactivation in HEK293 cells transfected with PPARγ. Type of test: cell-based. (In general: Reporter assays use an easily measured gene product as a stand-in for the process of interest.)

pEC50: −log10 of the molar value.

What is called pEC50 is the negative decadic logarithm of the EC50, by convention in mol/L. Higher therefore signals a small EC50.

As for `C=C[C@@H](O)C#CC#C[C@H](/C=C\CCCCCCC)OC(=O)/C=C/c1ccc(O)c(OC)c1` [3R,8S-1, (3R,8S)-Notoincisol A], the negative-log EC50 (pEC50) is 5.92.

The values above are taken from paper PMC6256351, “Stereoselective Synthesis of the Isomers of Notoincisol A: Assigment of the Absolute Configuration of this Natural Product and Biological Evaluation” (Journal of Natural Products, 2018).
